Counter-ions that a name gives are not always drawn.
Experiments:
HCT116 [1] = conditions: 72 h
Outline: (§1)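 In 1536-well plates, 250 HCT116 cells per well were seeded and left for 5 h to attach. Luminescence from CellTiter-Glo was set against vehicle (0%) and positive control (-100%), and pattern correction was applied. IC50 and maximal efficacy come from four-parameter Hill fitting.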

HCT116 [2] = experiment: efficacy (maximum % inhibition of viability vs DMSO); higher = more cytotoxic; conditions: 72 h
Outline: as §1

| SMILES | IC50 cell viability (HCT116 [1]; ICRF193 0 nM) | IC50 cell viability (HCT116 [1]; ICRF193 200 nM) | efficacy (HCT116 [2]; ICRF193 0 nM) | efficacy (HCT116 [2]; ICRF193 200 nM) |
| --- | --- | --- | --- | --- |
| Cn1cncc1[C@@](N)(c1ccc(Cl)cc1)c1ccc2c(c1)c(-c1cccc(Cl)c1)cc(=O)n2C [Tipifarnib] | 20.6 µM | 23.1 µM | 118% | 126% |
| CN(C(=O)CN(CCO)CC(=O)N(C)C(C)(C)Cc1ccccc1)C(C)(C)Cc1ccccc1 [Oxethazaine] | 16.4 µM | 13 µM | 104% | 97.5% |
| CCN(CC)Cc1cc(Nc2ccnc3cc(Cl)ccc23)ccc1O [Amodiaquin dihydrochloride dihydrate] | 18.3 µM | 18.3 µM | 85.2% | 101% |
| O=C(Nc1ccc([N+](=O)[O-])cc1)Nc1ccc([N+](=O)[O-])cc1 [4,4'-Dinitrodiphenylurea] | > 45.8 µM | 29.1 µM | – | 55.9% |
| CC[C@H](C)C(=O)O[C@H]1C[C@@H](C)C=C2C=C[C@H](C)[C@H](CC[C@@H]3C[C@@H](O)CC(=O)O3)[C@H]21 [Lovastatin] | > 45.8 µM | 20.6 µM | – | 46.5% |
| CCc1nn(CCCN2CCN(c3cccc(Cl)c3)CC2)c(=O)n1CCOc1ccccc1 [Nefazodone hydrochloride] | 14.6 µM | 18.3 µM | 42.5% | 63.8% |
| O[C@@H](COc1cccc2ncccc12)CN1CCN([C@@H]2c3ccccc3[C@@H]3[C@H](c4ccccc42)C3(F)F)CC1 [Zosuquidar trihydrochloride] | 23.1 µM | 20.6 µM | 141% | 105% |
| CCOc1nc2cccc(C(=O)OC(C)OC(=O)OC3CCCCC3)c2n1Cc1ccc(-c2ccccc2-c2nn[nH]n2)cc1 (centres undefined) [Candesartan cilexetil (Atacand)] | 20.6 µM | 29.1 µM | 93% | 100% |
| COC(=O)C1=C(C)NC(C)=C(C(=O)OCC(C)=O)C1c1ccccc1[N+](=O)[O-] (centres undefined) [Aranidipine] | 29.1 µM | 16.4 µM | 83.8% | 88.9% |
| CC(C)C[C@H](NC(=O)[C@H](CCc1ccccc1)NC(=O)CN1CCOCC1)C(=O)N[C@@H](Cc1ccccc1)C(=O)N[C@@H](CC(C)C)C(=O)[C@@]1(C)CO1 [Carfilzomib] | 0.0183 µM | 0.0164 µM | 86% | 89.7% |
| C[C@@H](O[C@H]1OCCN(Cc2n[nH]c(=O)[nH]2)[C@H]1c1ccc(F)cc1)c1cc(C(F)(F)F)cc(C(F)(F)F)c1 [Aprepitant] | 23.1 µM | 18.3 µM | 113% | 102% |
| C#C[C@]1(O)CC[C@H]2[C@@H]3CCc4cc(O)ccc4[C@H]3CC[C@@]21C [Ethinylestradiol] | > 45.8 µM | 20.6 µM | – | 41.1% |
| CN1CCC[C@@H]1CCO[C@](C)(c1ccccc1)c1ccc(Cl)cc1 [Clemastine fumarate] | 18.3 µM | 23.1 µM | 88% | 114% |
| CNC(=O)c1ccccc1Sc1ccc2c(/C=C/c3ccccn3)n[nH]c2c1 [Axitinib] | 23.1 µM | 20.6 µM | 57.5% | 62.1% |
| C#CCC(Cc1cnc2nc(N)nc(N)c2n1)c1ccc(C(=O)N[C@@H](CCC(=O)O)C(=O)O)cc1 (some centres undefined) [Pralatrexate] | 0.0082 µM | 0.00651 µM | 84.8% | 85.6% |
| O=C(O)c1c(Cl)c(Cl)c(Cl)c(Cl)c1-c1c2cc(I)c(=O)c(I)c-2oc2c(I)c(O)c(I)cc12 [Rose Bengal disodium] | 16.4 µM | 11.6 µM | 74.2% | 62.4% |
| CCCCCCCCCCCCCC[n+]1ccc(C)cc1 [Miripirium chloride] | 11.6 µM | 8.2 µM | 104% | 70% |
| CCCCC1(COC(=O)CCC(=O)O)C(=O)N(c2ccccc2)N(c2ccccc2)C1=O [Suxibuzone] | > 45.8 µM | 25.9 µM | – | 58.2% |
| CNC(=O)c1ccc(N2C(=S)N(c3ccc(C#N)c(C(F)(F)F)c3)C(=O)C2(C)C)cc1F [Enzalutamide] | > 45.8 µM | 20.6 µM | – | 45.8% |
| CN1CCCC(CC2c3ccccc3Sc3ccccc32)C1 (centres undefined) [Metixene hydrochloride] | 20.6 µM | 25.9 µM | 109% | 94.6% |
| NS(=O)(=O)c1cc2c(cc1Cl)N=C(CSCc1ccccc1)NS2(=O)=O [Benzthiazide] | > 45.8 µM | 29.1 µM | – | 77% |
| C#Cc1cccc(Nc2ncnc3cc(OCCOC)c(OCCOC)cc23)c1 [Erlotinib] | > 45.8 µM | 14.6 µM | – | 50.4% |
| CC1=C(C(=O)OC(C)C)C(c2cccc([N+](=O)[O-])c2)C(C(=O)OC2CN(C(c3ccccc3)c3ccccc3)C2)=C(N)N1 (centres undefined) [Azelnidipine] | 23.1 µM | 18.3 µM | 124% | 98% |
| CCC1=C[C@@H]2CN(C1)Cc1c([nH]c3ccccc13)[C@@](C(=O)OC)(c1cc3c(cc1OC)N(C)[C@H]1[C@@](O)(C(=O)OC)[C@H](OC(C)=O)[C@]4(CC)C=CCN5CC[C@]31[C@@H]54)C2 [Vinorelbine tartrate] | 0.0651 µM | 0.058 µM | 64.9% | 72.3% |
| CC(C)C[C@H](NC(=O)CNC(=O)c1cc(Cl)ccc1Cl)B1OC(=O)C(CC(=O)O)(CC(=O)O)O1 [MLN9708] | 0.13 µM | 0.103 µM | 96.2% | 94.4% |

| SMILES | IC50 cell viability (HCT116 [1]; ICRF193 0 nM) | IC50 cell viability (HCT116 [1]; ICRF193 200 nM) | efficacy (HCT116 [2]; ICRF193 0 nM) | efficacy (HCT116 [2]; ICRF193 200 nM) |
| --- | --- | --- | --- | --- |
| C[C@]12CCC(=O)C=C1[C@@H]1C[C@@H]1[C@H]1[C@@H]3[C@@H]4C[C@@H]4[C@@]4(CCC(=O)O4)[C@@]3(C)CC[C@@H]12 [Drospirenone] | 18.3 µM | 23.1 µM | 51.3% | 49.1% |
| CCN(CC)CCOc1ccc(C(=C(Cl)c2ccccc2)c2ccccc2)cc1 [Clomifene citrate] | 18.3 µM | 20.6 µM | 110% | 120% |
| CNCCCN1c2ccccc2CCc2ccccc21 [Desipramine hydrochloride] | > 45.8 µM | 18.3 µM | – | 47.5% |
| CNCCC=C1c2ccccc2CCc2ccccc21 [Pamelor] | > 45.8 µM | 29.1 µM | – | 51.6% |
| COc1cccc2c1C(=O)c1c(O)c3c(c(O)c1C2=O)C[C@@](O)(C(=O)CO)C[C@@H]3O[C@H]1C[C@H](N2CCO[C@H](OC)C2)[C@H](O)[C@H](C)O1 [Nemorubicin] | 0.0259 µM | 0.0291 µM | 68.6% | 76.1% |
| CCCCCCCCCCCC[n+]1ccc2ccccc2c1 [2-Dodecylisoquinolinium tosylate] | 7.3 µM | 4.61 µM | 101% | 103% |
| CC(CN(C)C)CN1c2ccccc2Sc2ccc(C(F)(F)F)cc21 (centres undefined) [Trifluomeprazine 2-butenedioate] | 16.4 µM | 18.3 µM | 40.2% | 49.5% |
| O=c1ccc2ccc(OCCCCN3CCN(c4cccc5sccc45)CC3)cc2[nH]1 [Brexpiprazole] | 18.3 µM | 20.6 µM | 102% | 106% |
| CN1CCc2c(c3ccccc3n2Cc2ccccc2)C1 [MEBHYDROLIN] | > 45.8 µM | 11.6 µM | – | 41.4% |
| C[C@]12Cc3nonc3C[C@@H]1CC[C@@H]1[C@@H]2CC[C@@]2(C)[C@H]1CC[C@]2(C)O [Furazabol] | 18.3 µM | 23.1 µM | 46.7% | 51.4% |
| c1cnc2cc3c(cc2n1)[C@@H]1CNC[C@H]3C1 [Varenicline tartrate] | > 45.8 µM | 29.1 µM | – | 80.4% |
| CN(C)C(=S)SSC(=S)N(C)C [Thiram] | > 45.8 µM | 29.1 µM | – | 82.8% |
| C[C@H](Oc1cc(-c2cnn(C3CCNCC3)c2)cnc1N)c1c(Cl)ccc(F)c1Cl [(S)-Crizotinib] | 20.6 µM | 18.3 µM | 89.7% | 91.2% |
| CCOc1ccc(Cc2nccc3cc(OCC)c(OCC)cc23)cc1OCC [Ethaverine hydrochloride] | 6.51 µM | > 45.8 µM | 61.3% | – |
| Clc1cc(Cl)c(OCC#CI)cc1Cl [Haloprogin] | 25.9 µM | 20.6 µM | 89.7% | 93.8% |
| CCCCCCCCCCCC[N+](C)(C)CCOc1ccccc1 [Domiphen bromide] | 10.3 µM | 8.2 µM | 101% | 90.4% |
| CCN1CCN(Cc2ccc(Nc3ncc(F)c(-c4cc(F)c5nc(C)n(C(C)C)c5c4)n3)nc2)CC1 [Abemaciclib] | 16.4 µM | 18.3 µM | 116% | 112% |
| Oc1c(Cl)cc(Cl)cc1Sc1cc(Cl)cc(Cl)c1O [Bithionol] | 18.3 µM | 20.6 µM | 92.2% | 108% |
| C/C(=C\c1csc(C)n1)[C@@H]1C[C@@H]2O[C@]2(C)CCC[C@H](C)[C@H](O)[C@@H](C)C(=O)C(C)(C)[C@@H](O)CC(=O)N1 [Ixabepilone] | 0.92 µM | > 45.8 µM | 72.5% | – |
| CN1C[C@H](C(=O)N[C@]2(C)O[C@@]3(O)[C@@H]4CCCN4C(=O)[C@H](Cc4ccccc4)N3C2=O)C=C2c3cccc4[nH]cc(c34)C[C@H]21 [Ergotamine tartrate] | > 45.8 µM | 18.3 µM | – | 70.8% |
| Cc1c(C(=O)Nc2ccc(N3C[C@@H](C)O[C@@H](C)C3)nc2)cccc1-c1ccc(OC(F)(F)F)cc1 [Sonidegib] | 10.3 µM | 13 µM | 42.7% | 60.5% |
| CCCCCCCC(=O)CC[C@@H]1[C@@H](C/C=C\CCCC(=O)OC(C)C)[C@@H](O)C[C@H]1O [Unoprostone isopropyl ester] | > 45.8 µM | 18.3 µM | – | 42.2% |
| CN(C)CCCN1c2ccccc2CCc2ccc(Cl)cc21 [Clomipramine hydrochloride] | 18.3 µM | 20.6 µM | 74.9% | 90.5% |
| CO[C@H]1C[C@H](O[C@H]2[C@H](C)O[C@@H](O[C@@H]3/C(C)=C/C[C@@H]4C[C@@H](C[C@]5(C=C[C@H](C)[C@@H](C6CCCCC6)O5)O4)OC(=O)[C@@H]4C=C(C)[C@@H](O)[C@H]5OC/C(=C\C=C\[C@@H]3C)[C@]54O)C[C@@H]2OC)O[C@@H](C)[C@@H]1O [DORAMECTIN] | 13 µM | 7.3 µM | 112% | 106% |
| CN(C)CCOc1ccc(/C(=C(/CCCl)c2ccccc2)c2ccccc2)cc1 [Toremifene citrate] | 20.6 µM | 29.1 µM | 128% | 104% |

From the supplement of paper PMC12137928
